These results are taken from patent US8003400B2, “Measurement of vitamin D” (Roche Diagnostics Operations, Inc., priority 2006, dated 2011).

The target in this assay is T1, vitamin D binding protein (Homo sapiens, UniProt P02774).
T1 sequence (P02774 17-474): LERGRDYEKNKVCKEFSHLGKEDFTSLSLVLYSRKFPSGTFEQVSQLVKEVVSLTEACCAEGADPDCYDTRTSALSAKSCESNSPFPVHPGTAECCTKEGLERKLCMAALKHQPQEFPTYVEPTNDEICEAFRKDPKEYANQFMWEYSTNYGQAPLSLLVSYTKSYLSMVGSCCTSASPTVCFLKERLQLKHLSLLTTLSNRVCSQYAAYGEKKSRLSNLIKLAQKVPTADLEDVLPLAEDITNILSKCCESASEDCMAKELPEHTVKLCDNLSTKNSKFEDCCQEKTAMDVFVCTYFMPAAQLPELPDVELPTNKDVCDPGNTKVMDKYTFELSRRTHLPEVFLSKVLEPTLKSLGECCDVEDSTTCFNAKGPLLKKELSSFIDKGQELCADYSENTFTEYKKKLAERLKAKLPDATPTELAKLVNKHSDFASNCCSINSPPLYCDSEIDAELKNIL
Put plainly: BIACORE assessment of release of vitamin D binding protein from immobilised biotinylated 25-hydroxyvitamin D3. Particulars: BIACORE streptavidin chip saturated with biotinylated 25-hydroxyvitamin D3 and vitamin D binding protein; release monitored for 3 min. The source says: For this assessment a streptavidin-coated BIACORE chip is used. This streptavidin-chip is then saturated with a biotinylated 25-hydroxyvitamin D3 and thereafter with vitamin D binding protein. […] The BIACORE system is used to assess whether a reagent considered to be a potential candidate for releasing vitamin D from vitamin D binding protein will be efficient in releasing of vitamin D binding protein to a vitamin D metabolite. A sensor chip coated with streptavidin (Sensor Chip SA, BIACORE AB, BR-1000-32) is used for immobilization of a biotinylated vitamin D metabolite of interest. The assessment is best performed by use of the vitamin D metabolite 25OH vitamin D3. The sensor chip is first incubated with a saturating concentration of biotinylated 25-hydroxyvitamin D3, Then the chip is loaded with a saturating amount of vitamin D binding protein. Then the vitamin D binding protein saturated chip is incubated with a sodium chloride solution one the one hand and a candidate vitamin D releasing reagent in various concentrations on the other hand. The release of vitamin D binding protein is monitored for 3 min. A candidate vitamin D releasing reagent causing the release of at least […] vitamin D binding protein in the above system is appropriate to meet the minimal requirements for a vitamin D releasing reagent used in the detection of a vitamin D metabolite in a sample of serum or plasma 25-hydroxyvitamin D3. Between each run the 25-hydroxyvitamin D3-coated SA-chip is regenerated by washing it with 10 mM Gly/HCl pH 1.7 for 1 min. As non-specific control a reference flow cell coated with biotin on the same chip was used. The data of the reference flow cell are subtracted from those of the biospecific flow cell. Thus specific data free of non-specific effects are obtained.
For orientation: Surface plasmon resonance follows binding to a sensor surface in real time, without labels.
Take “1-Butyl-3-methyl-imidazolium-octylsulfate [BMI-OSO4]”: the “Concentration of releasing reagent required for release off >95% vitamin D binding protein from 25OH-vitamin D3” value came out at 0.5 % volume/volume.

For `CCCCn1cc[n+](C)c1.F[B-](F)(F)F` [BMI-TFB, 1-Butyl-3-methyl-imidazolium-tetrafluoroborate], the “Concentration of releasing reagent required for release off >95% vitamin D binding protein from 25OH-vitamin D3” value was 8 % volume/volume. The value for `CCCC[n+]1cccc(C)c1.[Cl-]` [BMP-Cl, 1-Butyl-3-methyl-pyridinium-chloride] was 12 % volume/volume; that for `CCCC[n+]1cccc(C)c1.N#C[S-]` [BMP-SCN, 1-Butyl-3-methyl-pyridinium-thiocyanate] was 6 % volume/volume. The value for `CCCC[n+]1ccc(C)cc1.F[B-](F)(F)F` [BMP-TFB, 1-Butyl-4-methyl-pyridinium-tetrafluoroborate] was 6 % volume/volume; that for `CCCCCC[n+]1ccccc1.[Cl-]` [HP-Cl, 1-Hexylpyridinium-chloride] was 6 % volume/volume; that for `CCCCCCCC[N+]1(C)CCCC1.[Cl-]` [MOP-Cl, 1-Methyl-1-octyl-pyrrolidinium-chloride] was 3 % volume/volume. For the compound `CCCCCCCC[n+]1ccccc1.[Cl-]` [NOP-Cl, N-Octylpyridinium-chloride], the “Concentration of releasing reagent required for release off >95% vitamin D binding protein from 25OH-vitamin D3” value stood at 3 % volume/volume.
